Measured values: paper PMC3465710 (Biochemistry, 2011)
Values joined by “and” are separate entries in the source; they are usually repeats but may differ in a detail not shown here. Equal entries are not always repeated. Where two headings read alike, the source gives them in different places.

Target: T1, GLUT1 (Homo sapiens, UniProt P11166)
T1 sequence (P11166 1-492): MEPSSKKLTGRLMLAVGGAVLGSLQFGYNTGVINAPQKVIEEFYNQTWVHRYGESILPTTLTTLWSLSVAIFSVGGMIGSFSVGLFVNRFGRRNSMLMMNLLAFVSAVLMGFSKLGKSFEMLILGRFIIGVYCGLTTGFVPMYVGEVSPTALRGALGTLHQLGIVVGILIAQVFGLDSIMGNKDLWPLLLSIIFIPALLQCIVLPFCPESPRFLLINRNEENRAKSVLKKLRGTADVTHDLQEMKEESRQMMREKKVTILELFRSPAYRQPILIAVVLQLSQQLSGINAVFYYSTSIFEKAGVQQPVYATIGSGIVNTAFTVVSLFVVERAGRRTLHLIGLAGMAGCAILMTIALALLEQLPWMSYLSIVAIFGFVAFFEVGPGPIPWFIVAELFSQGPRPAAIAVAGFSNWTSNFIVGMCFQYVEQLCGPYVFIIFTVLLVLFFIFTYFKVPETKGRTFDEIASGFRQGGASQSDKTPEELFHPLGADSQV
Type: binding
Settings: for β (cooperativity parameter, second inhibitor molecule) / γ (hetero-cooperativity parameter) / Inhibition (type of modulation of CB binding) / Ki: 50 nM [3H]-CB; for β (cooperativity parameter, second inhibitor molecule) / γ (hetero-cooperativity parameter) / Ki: 4°C; for β (cooperativity parameter, second inhibitor molecule) / γ (hetero-cooperativity parameter): eqn 6; for Inhibition (type of modulation of CB binding): competing ligand 0 to 100 μM; for ΔΔG°: change in ΔG° relative to baseline cytochalasin or forskolin; for β*γ: product; for Kd: rounded values; for ΔG°: calculated as RT ln(1/KI); for Ki: eqn 6, iterative free [I]

[1] = read-out: KL (Table 3, taken from Table 1), forskolins
[2] = read-out: Ki (affinity of unoccupied GLUT1 for ligand)
[3] = read-out: KL (Table 2, taken from Table 1), cytochalasins

| SMILES | β (cooperativity parameter, second inhibitor molecule) | γ (hetero-cooperativity parameter) | Inhibition (type of modulation of CB binding) | ΔΔG° [kcal/mol] | β*γ | Kd [1] [nM] | ΔG° [kcal/mol] | Ki [2] [nM] | further results |
| --- | --- | --- | --- | --- | --- | --- | --- | --- | --- |
| C=C[C@@]1(C)CC(=O)[C@]2(O)[C@@]3(C)[C@@H](OC(C)=O)CCC(C)(C)[C@@H]3[C@H](OC(C)=O)[C@H](OC(C)=O)[C@@]2(C)O1 [1,6DiAFSK, 1,60diacetyl-forskolin] | 1480 ± 268 | 0.489 ± 0.017 | 2 | 0.67 | 724 | 11 |  |  | β (cooperativity parameter, second inhibitor molecule) (listed as 1,6DiA-FSK): 1500; γ (hetero-cooperativity parameter) (listed as 1,6DiA-FSK): 0.49 |
| C=C[C@@]1(C)CC(=O)[C@]2(O)[C@@]3(C)[C@@H](OC(C)=O)CCC(C)(C)[C@@H]3[C@H](O)[C@H](OC(C)=O)[C@@]2(C)O1 [1AFSK, 1-acetyl-forskolin] | 11923 ± 8441 | 0.440 ± 0.008 | 2 | -3.85 | 5246 | 3 | -10.80 | 3 ± 2 | β (cooperativity parameter, second inhibitor molecule) (listed as 1A-FSK): 11923; γ (hetero-cooperativity parameter) (listed as 1A-FSK): 0.44 |
| C=C[C@@]1(C)CC(=O)[C@]2(O)[C@@]3(C)CCCC(C)(C)[C@@H]3[C@H](O)[C@H](OC(C)=O)[C@@]2(C)O1 [1DOFSK, 1-deoxy-forskolin] | 22179 ± 5104 | 0.438 ± 0.017 | 2 | -4.46 | 9714 | 1 | -11.41 | 1 ± 0.7 | β (cooperativity parameter, second inhibitor molecule) (listed as 1DO-FSK): 22,179 ± 5,104; β (cooperativity parameter, second inhibitor molecule) (listed as 1DeO-FSK): 22000; γ (hetero-cooperativity parameter) (listed as 1DeO-FSK): 0.44 |
| C=C[C@@]1(C)CC(=O)[C@]2(O)[C@@]3(C)[C@@H](O)CCC(C)(C)[C@@H]3[C@H](OC(C)=O)[C@H](O)[C@@]2(C)O1 [6A7DeAFSK, 6-acetyl, 7-deacetyl-forskolin] |  |  | 5 |  |  |  |  |  |  |
| C=C[C@@]1(C)CC(=O)[C@]2(O)[C@@]3(C)[C@@H](O)CCC(C)(C)[C@@H]3[C@H](O)[C@H](O)[C@@]2(C)O1 [7DeAFSK, 7-deacetyl-forskolin] | ∞ | 0.450 ± 0.008 | 4 | -4.07 | ∞ | 2 | -11.02 | 2 ± 2 | γ (hetero-cooperativity parameter) (listed as 7DeA-FSK): 0.45 ± 0.01 and 0.45 |
| C=C[C@@]1(C)CC(=O)[C@]2(O)[C@@]3(C)[C@@H](O)CCC(C)(C)[C@@H]3[C@H](O)[C@H](OC(=O)CF)[C@@]2(C)O1 [7FAFSK, 7-fluoroacetyl-forskolin] | 45.3 ± 5.0 | 0.475 ± 0.010 | 2 | -0.91 | 22 | 630 | -7.86 | 629 ± 0.644 | β (cooperativity parameter, second inhibitor molecule) (listed as 7FA-FSK): 45; γ (hetero-cooperativity parameter) (listed as 7FA-FSK): 0.48 |
| C=C[C@@]1(C)CC(=O)[C@H]2[C@](C)(O1)[C@@H](OC(C)=O)[C@@H](O)[C@H]1C(C)(C)CC[C@H](O)[C@@]12C [9DOFSK, 9-deoxy-forskolin] | 120.3 ± 12.3 | 0.464 ± 0.016 | 2 | -1.12 | 56 | 430 | -8.07 | 430 ± 75 | β (cooperativity parameter, second inhibitor molecule) (listed as 9DeO-FSK): 120; γ (hetero-cooperativity parameter) (listed as 9DeO-FSK): 0.46 |
| CC[C@@]1(C)CC(=O)[C@@]2(O)[C@]3(C)[C@H](O)CCC(C)(C)[C@H]3[C@@H](O)[C@@H](OC(C)=O)[C@]2(C)O1 [14.15DiHFSK, 14,15-dihydro-forskolin] | 242.7 ± 140 | 0.571 ± 0.015 | 1 | -2.60 | 139 | 30 | -9.55 | 29.1 ± 17 | β (cooperativity parameter, second inhibitor molecule) (listed as 14,15DiH-FSK): 243; γ (hetero-cooperativity parameter) (listed as 14,15DiH-FSK): 0.6 |
| C=C1[C@@H](C)[C@H]2[C@H](Cc3ccccc3)NC(=O)[C@]23OC(=O)/C=C/C(=O)CCC[C@@H](C)C/C=C/[C@H]3[C@@H]1O [CCA, Cytochalasin A] | 1.11 ± 0.17 | 0.374 ± 0.052 | 2 | 1.17 | 0.42 |  | -7.72 | 815 ± 96 | β (cooperativity parameter, second inhibitor molecule) (listed as CA): 1.11; γ (hetero-cooperativity parameter) (listed as CA): 0.38; Kd [3]: 820 nM |
| CC(=O)O[C@@H]1/C=C\[C@@](C)(O)C(=O)[C@@H](C)C/C=C\[C@H]2[C@H](O)C(C)=C(C)[C@H]3C(Cc4ccccc4)NC(=O)[C@]132 (stereo partly shown) [CCC, Cytochalasin C] | ∞ | 0.433 ± 0.003 | 4 | 1.53 | ∞ |  | -7.35 | 1590 ± 431 | γ (hetero-cooperativity parameter) (listed as CC): 0.43; Kd [3]: 1600 nM |
| C=C1[C@@H](C)[C@H]2[C@H](Cc3ccccc3)NC(=O)[C@]23[C@H](OC(C)=O)/C=C/[C@@](C)(O)C(=O)[C@@H](C)C/C=C/[C@H]3[C@@H]1O [CCD, Cytochalasin D] | 101 ± 61 | 0.557 ± 0.019 | 3 | 1.65 | 51 |  | -7.23 |  | β (cooperativity parameter, second inhibitor molecule) (listed as CD): 101; γ (hetero-cooperativity parameter) (listed as CD): 0.56; Kd (KL (Table 2, taken from Table 1), cytochalasins): 2000 nM; Ki (Ki (affinity of unoccupied GLUT1 for ligand)): 1970 ± 98 nM |
| C=C1[C@@H](C)[C@H]2[C@H](Cc3ccccc3)NC(=O)[C@]23[C@H](OC(C)=O)/C=C/[C@](C)(O)C[C@@H](C)C/C=C/[C@H]3[C@@H]1O [CCH, Cytochalasin H] | 249 ± 45 | 0.449 ± 0.019 | 2 | 0.00 | 110 |  | -8.88 | 98 ± 3 | β (cooperativity parameter, second inhibitor molecule) (listed as CH): 249; γ (hetero-cooperativity parameter) (listed as CH): 0.45; Kd [3]: 100 nM |
| C=C1[C@@H](C)[C@H]2[C@H](Cc3ccccc3)NC(=O)[C@]23[C@H](O)/C=C/[C@](C)(O)C[C@@H](C)C/C=C/[C@H]3[C@@H]1O [CCJ, Cytochalasin J] | 6399 ± 347 | 0.635 ± 0.013 | 3 | -1.16 | 4063 |  | -10.04 | 12 ± 1 |  |
